# Results taken from patent US6376175B1, “Methods of discovering chemicals capable of functioning as gene expression modulators” (OSI Pharmaceuticals, Inc., priority 1989, dated 2002).
# Tests used:
# Format in all cases: cell-based
# [1] = test system: human growth hormone promoter; conditions: for hGH fold induction relative to solvent control: Table 2 A) transcriptional activators; for hGH fold induction relative to solvent control / hGH fold inhibition relative to solvent control: 532 cells, 6 hours, high-throughput screen; for hGH fold inhibition relative to solvent control: Table 2 B) transcriptional inhibitors
# Source text: A rat pituitary cell line, designated GC, (4, 25) was used for transfection of plasmids containing the human growth hormone promoter (see below) and was maintained in DMEM and Ham's F12 medium (1:1), supplemented with 12.5% FCS. For HTP screening, transfected GC clones were transferred to serum free defined medium consisting of DMEM and Ham's F12 medium (1:1) supplemented with growth factors, hormones and nutrients as described previously (17, 5).
# The SalI-XhoI fragment of pSVLuci (FIG. 2) containing the luciferase coding sequences and the SV40 late polyadenylation site was inserted into pUC 8 (Biorad, Richmond, Calif.), which has been linearized by a SmaI/HinCII digestion and ligated to XhoI linkers (New England Biolabs, Beverly, Mass.). The new plasmid thus generated (pUXLuci; FIG. 4) was linearized by XhoI digestion followed by incubation with the Klenow fragment of E. coli DNA polymerase and the four deoxyribonucleotides to fill in the single-stranded ends of the vector. This linear (5.1 KB) form of pUXLuci was then ligated to the filled-in 550 bP HindIII-XbaI fragment of the plasmid phGH:CAT (FIG. 5) (25). Human growth hormone promoter sequences located on the HindIII-XbaI fragment were thus fused to the luciferase coding sequences located on pUXLuci generating the plasmid phGH-Luci (FIG. 6), which was used in transfections of GC cells as described below (Section E2).
# phGH-LUCI (FIG. 6) and pRSVNeo, an antibiotic resistance plasmid (14), were co-transfected into GC rat pituitary cells as described above. Selection of G418-resistant cell clones was described above except for using a concentration of 0.2 mg/ml G418. Analysis of the cell clones was performed as above, except that known inducers of hGH expression (10-100 nM rat growth hormone releasing factor (rGRF, Bachem, Torrance, Calif.) and 10 μm forskolin (Sigma, St. Louis, Mo.) were used in place of dexamethasone. One clone, 532, was selected for further use in the high throughput screen.
# (§1) Cell plating: Dynatech Microlite 96 well plates were custom pretreated for cell attachment by Dynatech Laboratories, Inc. (Chantilly, Va.). Alternatively, the 96 well plates were treated with 50 µl per well of human fibronectin (hFN, 15 µg/ml in PBS, Collaborative Research, Bedford, Mass.) overnight at 37 C. hFN-treated plates were washed with PBS using an Ultrawash 2 Microplate Washer (Dynatech Labs), to remove excess hFN prior to cell plating. M10, 532, and G21 cells maintained in their respective serum media (with 0.2 mg/ml G418) were washed with PBS, harvested by trypsinization, and counted using a hemocytometer and the Trypan Blue exclusion method according to protocols provided by Sigma, St. Louis, Mo. Chemical Company. Cells were then diluted into serum free defined media (with 0.2 mg/ml G418), and 0.2 ml of cell suspension per well was plated onto Dynatech treated plates (532 and G21) or hFN-treated plates (M10) using a Cetus Pro/Pette (Cetus, Emeryville Calif.). Plates were incubated overnight at 37 C in a humidified 5% CO2 atmosphere.
# (§2) Addition of Chemicals to Cells: Chemicals from the Oncogene Science file were dissolved in DMSO at concentrations of 3-30 mg/ml. A liquid handling laboratory work station (RSP 5052, Tecan U.S. Chapel Hill, N.C.) was used to dilute the chemicals (three dilutions; 5 fold, 110 fold, and 726 fold). 10 11 of each dilution were added to each of quadruplicate samples of cells contained in the wells of 96-well Dyantech Microlite Plates. Cell plates were then shaken on a microplate shaker (Dyantech, medium setting, 30 sec.) and incubated for 6 hours at 37 C, 5% CO2.
# Bioluminescence Assay: After incubation with OSI-file chemicals, cell plates were washed 3 times with PBS using an Ultrawash 2 Microplate Washer (Dyantech Labs) and 75 µl of Lysis Buffer 2 were added to each well (Lysis Buffer 2 is the same as Lysis buffer 1 exept that the ATP and DTT concentrations were changed to 2.67 mM and 133 mM, respectively). […]
# [2] = test system: mouse mammary tumor virus (MMTV) promoter; conditions: for MMTV fold induction relative to solvent control: Table 2 A) transcriptional activators; for MMTV fold induction relative to solvent control / MMTV fold inhibition relative to solvent control: M10 cells, 6 hours, high-throughput screen; for MMTV fold inhibition relative to solvent control: Table 2 B) transcriptional inhibitors; for effect of steroids on luciferase expression in the MMTV reporter cell line M10: FIG. 43
# Source text: NIH/3T3 fibroblast cells (ATCC number CRL 1658) were used for transfection of plasmids containing the mouse mammary tumor virus (MMTV) promoter linked to firefly luciferase coding sequences (see below). Cells were propagated in Dulbecco's modified Eagle's medium (DMEM) obtained from Gibco, Grand Island, N.Y. and supplemented with 10% FCS. For high-throughput (HTP) screening, transfected NIH/3T3 clones were transferred to serum free defined medium consisting of Iscove's modified Eagle's medium (IMEM) and Ham's F12 medium (1:1) supplemented with growth factors, hormones and nutrients as described previously (43).
# The firefly luciferase gene was removed from the plant expression plasmid pDO432 (33) (FIG. 1) as a 1.9 kb BamHI fragment and cloned into the BamHI site of pSVL (Pharmacia, Piscataway, N.J.), a mammalian expression vector containing the SV40 promoter. The resulting plasmid (pSVLuci; FIG. 2) was digested with XhoI and SalI to produce a 2.4 kb fragment containing the luciferase coding sequences and the SV40 late polyadenylation site. This fragment was inserted into the XhoI site of pMSG (Pharmacia, Piscataway, N.J.), a eukaryotic expression vector containing the MMTV promoter. The resulting MMTV promoter-luciferase fusion plasmid (pMLuci; FIG. 3) was used to transfect NIH/3T3 cells as described below (section E1). Similar constructs can be made using luciferase vectors from Clontech (Palo Alto, Calif.).
# pMluci (FIG. 3) and pSV2Neo, an antibiotic resistance plasmid (34), were co-transfected into NIH/3T3 mouse fibroblast cells using the calcium phosphate precipitation method (15) with a commercially available kit (Pharmacia, Piscataway N.J.). Two days later, cells were transferred to media containing 0.4 mg/ml G418 and were grown for an additional 10-14 days. G418-resistant clones were isolated by standard methods. Once sufficient cell numbers were obtained, clones were analyzed based on several criteria: constitutive luciferase production, induction of luciferase expression by dexamethasone (1 μm, Sigma, St. Louis, Mo.), satisfactory attachment to microtiter plates used in the high-throughput screen (see Section G) and acceptable standard deviation in multiple luciferase expression assays (see below for assay protocol). This analysis was carried out using the luciferase assay conditions described in sections F and G. Of the clones which satisfied the above criteria for the high throuphput screen, one clone, M10, was selected for use.
# as §1
# as §2, with “Cell plates were then shaken on a microplate shaker (Dyantech, medium setting, 30 sec.) and incubated for 6 hours at 37 C, 5% CO2.” left out
# human G-CSF promoter = conditions: for GCSF fold induction relative to solvent control: Table 2 A) transcriptional activators; for GCSF fold induction relative to solvent control / GCSF fold inhibition relative to solvent control: G21 cells, 6 hours, high-throughput screen; for GCSF fold inhibition relative to solvent control: Table 2 B) transcriptional inhibitors
# Source text: A human bladder carcinoma cell line (U5637, ATCC number HTB 9) was used for transfection of plasmids containing the human Granulocyte-Colony Stimulating Factor (G-CSF) promoter (see below) and was maintained in RPMI medium supplemented with 10% FCS. For HTP screening, transfected 5637 clones were transferred to a serum free defined medium identical to that used for the NIH/3T3 clones.
# The sequences of OL-1, OL-2 and OL-5 recognize the G-CSF promoter region, OL-4 recognizes the first intron/exon junction and OL-3 recognizes sequences within the second exon (32). One of the clones isolated from the leukocyte library using these oligonucleotide probes contains a 3.5 kb SalI-BamHI fragment of G-CSF genomic sequence consisting of 3.3 kb of promoter sequence and two hundred base pairs of the coding region. This fragment was inserted into the vector pGEM-7-Zf (Promega, Madison, Wis.) which had previously been digested with SalI/BamHI, resulting in the vector pJM710 (FIG. 7). pJM710 was then digested with PstI, and the resulting 1.6 kb fragment containing G-CSF upstream sequences and the first 15 bases of the G-CSF leader sequence was inserted into the PstI site of pGEM5-Luci (FIG. 8) to generate pG-Lucl (FIG. 9). This construct was then used for transfection of 5637 human bladder carcinoma cells as described below in section E3. pGEM5-Luci (FIG. 8) had previously been constructed by inserting the […]/SalI fragment from pSVLuci (FIG. 2) containing the luciferase coding sequence and the SV40 late polyadenylation signal into pGEM 5-Zf (Promega, Madison Wis.) digested with XhoI/SalI.
# pG-LUC1 (FIG. 9) and pRSVNeo were co-transfected into 5637 human bladder carcinoma cells as described above. Selection of G418 resistant clones was as described above except for using a concentration of 0.1 mg/ml G418. Analysis of cell clones was performed as above except that a known inducer of G-CSF expression (1-5 µg/ml lipopolysaccharide (LPS), E. coli serotype 055:b5, Difco, Detroit, Mich. or Sigma, St. Louis, Mo.) was used in place of dexamethasone.
# as §1
# as §2, with “Cell plates were then shaken on a microplate shaker (Dyantech, medium setting, 30 sec.) and incubated for 6 hours at 37 C, 5% CO2.” left out
Molecule,hGH fold induction relative to solvent control [1],MMTV fold induction relative to solvent control [2],GCSF fold induction relative to solvent control (human G-CSF promoter),further results
"CC(CCl)CBr (single isomer, unassigned) [Chemical 2096]",0.61 fold,0.89 fold,3.27 fold,
Cc1cc(-c2ccc(S(=O)(=O)[O-])cc2)c2ccc3c(-c4ccc(S(=O)(=O)[O-])cc4)cc(C)nc3c2n1.O.[Na+].[Na+] [Chemical 189],1.47 fold,2.80 fold,1.06 fold,
Nc1nc(=O)n(C2CC(O)C(CO)O2)cc1Br (stereo not shown) [Chemical 542],1.08 fold,1.26 fold,6.28 fold,
O=c1[nH]c(=O)n(C2CC(O)C(CO)O2)cc1Br (stereo not shown) [Chemical 543],0.72 fold,0.98 fold,7.17 fold,
O=C(OC(C(=O)O)C(OC(=O)c1ccccc1)C(=O)O)c1ccccc1 (stereo not shown) [Chemical 578],,,,hGH fold inhibition relative to solvent control [1]: 4.00 fold; MMTV fold inhibition relative to solvent control [2]: 0.91 fold; GCSF fold inhibition relative to solvent control (human G-CSF promoter): 0.65 fold
C1CCNCC1 [Chemical 759],,,,GCSF fold inhibition relative to solvent control (human G-CSF promoter): 0.64 fold
Nc1ccc2nc3ccc(N)cc3[s+]c2c1 [Chemical 836],0.23 fold,0.58 fold,3.20 fold,
CC1(C)OC2CC3C4CCC5=CC(=O)C=CC5(C)C4(F)C(O)CC3(C)C2(C(=O)CO)O1 (stereo not shown) [Chemical 848],1.28 fold,2.43 fold,0.75 fold,
CC1(C(=O)OCC(F)(F)C(F)(F)C(F)(F)C(F)(F)C(F)(F)C(F)F)CCC(C(=O)OCC(F)(F)C(F)(F)C(F)(F)C(F)(F)C(F)(F)C(F)F)C1(C)C (stereo not shown) [Chemical 1592],0.74 fold,1.34 fold,3.20 fold,
CC1(C)C2CCC1(C)C(O)C2 (stereo not shown) [Chemical 1635],,,,hGH fold inhibition relative to solvent control [1]: 9.09 fold; MMTV fold inhibition relative to solvent control [2]: 0.99 fold; GCSF fold inhibition relative to solvent control (human G-CSF promoter): 0.71 fold
Cc1cc(=O)oc2c(CN(CC(=O)O)CC(=O)O)c(O)ccc12 [Chemical 1712],,,,GCSF fold inhibition relative to solvent control (human G-CSF promoter): 0.64 fold
CC12CCC(CC1=O)C2(C)C (stereo not shown) [Chemical 1720],,,,hGH fold inhibition relative to solvent control [1]: 4.76 fold; MMTV fold inhibition relative to solvent control [2]: 0.66 fold; GCSF fold inhibition relative to solvent control (human G-CSF promoter): 0.65 fold
"C[C@]12CCC(=O)C=C1CC[C@@H]1[C@@H]2[C@@H](O)C[C@]2(C=O)[C@@H](C(=O)CO)CC[C@@H]12 [aldosterone, reference compound]",,,,effect of steroids on luciferase expression in the MMTV reporter cell line M10 [2]: stimulates clone M10
"C[C@@H]1C[C@H]2[C@@H]3CCC4=CC(=O)C=C[C@]4(C)[C@@]3(F)[C@@H](O)C[C@]2(C)[C@@]1(O)C(=O)CO [dexamethasone, reference compound]",,,,stimulation of clone M10 by known inducer ([2]; 1 μm dexamethasone): 11.6 fold
"CC(=O)[C@H]1CC[C@H]2[C@@H]3CCC4=CC(=O)CC[C@]4(C)[C@H]3CC[C@]12C [progesterone, reference compound]",,,,effect of steroids on luciferase expression in the MMTV reporter cell line M10 [2]: did not
lipopolysaccharide [reference compound],,,,stimulation of clone G21 by known inducer (human G-CSF promoter; 5 µg/ml lipopolysaccharide): 5.7 fold
"rat growth hormone releasing factor: rat growth hormone releasing factor (rGRF, Bachem), known inducer of hGH expression (HADAIFTSSYRRILGQLYARKLLHEIMNRQQGERNQEQRSRFN; Somatoliberin; UniProt P09916 31-73, looked up) [reference compound]",,,,stimulation of clone 532 by known inducer ([1]; 100 nM rat growth hormone releasing factor): 2.2 fold
